The source of these data is ChEMBL document CHEMBL4152359, “Synthesis and biological evaluation of novel heteroring-annulated pyrrolino-tetrahydroberberine analogues as antioxidant agents” (Bioorg Med Chem, 2018).

In one data set the test system is DNA. Nature of the data set: Antioxidant activity assessed as protection against ferrous ions and dioxygen-induced free radical-mediated DNA strand break in pEMBL8 supercoiled DNA preincubated with DNA followed by (NH4)2Fe(SO4)2.6H2O addition measured after 6 mins by ethidium bromide staining based agarose gel electrophoresis method. Format: functional.
Data set [1] has as its system NCTC-2544. Briefly: Antioxidant activity in human NCTC-2544 cells assessed as reduction in H2O2-induced ROS level at 30 uM preincubated up to 3 hrs followed by H2O2 addition measured for 30 mins by DCFH-DA staining based fluorescence assay. It counts as functional, cell-based.
Data set [2] has as its system NCTC-2544. Briefly: Antioxidant activity in human NCTC-2544 cells assessed as reduction in H2O2-induced ROS level at 30 uM preincubated with cells followed by H2O2 addition measured after 24 hrs by DCFH-DA staining based fluorescence assay. It counts as functional.
The nature of data set [3]: Antioxidant activity assessed as trolox equivalents of AAPH-induced radical scavenging activity by ORAC-FL assay. Format: functional.
In data set [4] the test system is NCTC-2544. Nature of the data set: Cytotoxicity against human NCTC-2544 cells assessed as reduction in cell viability at 30 uM at 72 hrs by WST8 assay relative to control. Format: cell-based. As to conditions: nctc-2544, 72 h. A general note: Tetrazolium assays rely on reduction of a dye to a coloured formazan, in cell work by metabolically active cells.
Data set [5] relates to NCTC-2544. Nature of the data set: Cytotoxicity against human NCTC-2544 cells assessed as reduction in cell viability at 30 uM up to 72 hrs by WST8 assay. It counts as cell-based. As to conditions: nctc-2544, 72 h.
Data set [6] relates to NCTC-2544. Nature of the data set: Antioxidant activity in human NCTC-2544 cells assessed as reduction in intracellular oxidation level at 30 uM after 24 hrs by DCFH-DA staining based fluorescence assay. Format: functional, cell-based.
The subject of data set [7] is NCTC-2544. Nature of the data set: Antioxidant activity in human NCTC-2544 cells assessed as reduction in intracellular oxidation level at 30 uM after 1 hr by DCFH-DA staining based fluorescence assay. Format: functional, cell-based.
Data set [8] concerns NCTC-2544. Nature of the data set: Antioxidant activity in human NCTC-2544 cells assessed as reduction in intracellular oxidation level at 30 uM after 3 hrs by DCFH-DA staining based fluorescence assay. It counts as functional, cell-based.

The source made the active and inactive calls. No cut-off for these calls is given here.

As for `COc1ccc2c(c1OC)CN1CCc3cc4c(cc3C13C2C(P(=O)(OC)OC)=C(C)N3NC(=O)OC(C)(C)C)OCO4` (centres undefined), the EC50 in the data set on DNA was 196 µM. In addition, in the data set with NCTC-2544 [1], the outcome was Active. Also, in the data set on NCTC-2544 [2], the result was inactive. In addition, the results for the Activity (in data set [3]; in the data set on NCTC-2544 [4]) were 1130 equiv and 35%, respectively.
For the molecule `COC(=O)NN1C(C)=C(C(=O)OC)C2c3ccc(OC)c(OC)c3CN3CCc4cc5c(cc4C231)OCO5` (centres undefined), in the data set with DNA, the EC50 was found to be 683 µM. In the data set on NCTC-2544 [1], the result was Active. Besides, the result in the data set with NCTC-2544 [2] was inactive. Also, the Activity entry with NCTC-2544 [5] was “Non-Toxic”; in data set [3], 855 equiv.
In the case of `COc1ccc2c(c1OC)CN1CCc3cc4c(cc3C1C2)OCO4` (centres undefined) [TETRAHYDROBERBERINE], the EC50 in the data set on DNA was 93 µM. Also, the result in the data set on NCTC-2544 [1] was Active. Moreover, the result in the data set on NCTC-2544 [2] and in the data set on NCTC-2544 [6] was inactive. In addition, the Activity in [3] worked out at 1580 equiv.
`COC(=O)C1=C(C)N(NC(=O)Nc2ccccc2)C23c4cc5c(cc4CCN2Cc2c(ccc(OC)c2OC)C13)OCO5` (centres undefined): the concentration for a half-maximal effect (EC50) with DNA amounted to 63 µM. Also, the result in the data set with NCTC-2544 [1] was Active. The outcome in the data set on NCTC-2544 [2] was inactive. Besides, the Activity entry in the data set with NCTC-2544 [5] is “Non-Toxic”; in data set [3], 1160 equiv.
Consider `CCOC(=O)NN1C(C)=C(C(=O)OCC)C2c3ccc(OC)c(OC)c3CN3CCc4cc5c(cc4C231)OCO5` (centres undefined), for which the 50% effective concentration (EC50) with DNA came out at 407 µM. Also, the outcome with NCTC-2544 [1] and with NCTC-2544 [7] was Active. Moreover, the result with NCTC-2544 [2] was inactive. Besides, the Activity entry in the data set with NCTC-2544 [5] was “Non-Toxic”; in [3] it was 955 equiv.
`COC(=O)C1=C(C)N(NC(=O)OC(C)(C)C)C23c4cc5c(cc4CCN2Cc2c(ccc(OC)c2OC)C13)OCO5` (centres undefined): the EC50 with DNA came out at 119 µM. Besides, the result in the data set with NCTC-2544 [1] was Active. Also, in the data set on NCTC-2544 [2], the outcome was inactive. The Activity entry is “Non-Toxic” in the data set on NCTC-2544 [5] and 1470 equiv in data set [3].
Consider `CCOC(=O)C1=C(C)N(NC(=O)OC(C)(C)C)C23c4cc5c(cc4CCN2Cc2c(ccc(OC)c2OC)C13)OCO5` (centres undefined), for which the EC50 with DNA came to 74 µM. For the same molecule, the result with NCTC-2544 [1], with NCTC-2544 [7], in the data set on NCTC-2544 [6] and in the data set on NCTC-2544 [8] was Active. Moreover, the Activity with NCTC-2544 [2] is 37%; in the data set with NCTC-2544 [5], “Non-Toxic”; in data set [3], 1560 equiv.
For the molecule `COc1ccc2c(c1OC)CN1CCc3cc4c(cc3C13C2C(C(=O)Nc1ccccc1)=C(C)N3NC(=O)Nc1ccccc1)OCO4` (centres undefined), in the data set on DNA, the EC50 worked out at 140 µM. Also, the outcome in the data set with NCTC-2544 [1] was Active. Further, in the data set with NCTC-2544 [2], the outcome was inactive. The Activity result in the data set on NCTC-2544 [5] is “Non-Toxic”; in data set [3], 185 equiv.

In general, EC50 refers to the concentration that produces a half-maximal response.
